Experimental data taken from US5504098A, “Benzothiazolesulfonamide derivative, method for preparing the same, and use thereof” (Asahi Kasei Kogyo Kabushiki Kaisha, priority 1993, dated 1996).
Structures can show the parent of a compound that is named as a salt.

Columns and labels:
protein kinase C (PKC) = assay: Measurement of the activity to inhibit protein kinase C (PKC); type: biochemical, rat; conditions: for Ki: ATP 1, 3, 5 and 10 μM, double reciprocal plotting, PKC from rat brain, read-out: PKC inhibiting activity in terms of Ki value
Method: Each of compounds 1 to 10 was used as an inhibitor for PKC. As a comparative compound, 1- 2-(6-benzothiazolesulfonylamino)ethyl!-4- 3-(phenoxy)propyl!piperazine dihydrochloride disclosed in International Patent Application Publication No. W092/14712 was used. Measurement of a PKC inhibiting activity of each of compounds 1 to 10 was conducted utilizing a kit for measuring PKC inhibiting activity (manufactured and sold by Medical and Biological Laboratories, Japan). PKC was isolated from a rat brain and purified by the method according to Inagaki et al. (Journal of Biochemistry, vol. 260, p.2922-2925, 1985). On the surface of each well of the 96-well plate of the measuring kit, a peptide which is a substrate for PKC was immobilized. To each of the wells was added a solution containing 25 mM Tris buffer (pH 7.5), 3 mM magnesium chloride, 1 mM calcium chloride, 0.1% 2-mercaptoethanol, 1 mg/ml bovine serum albumin, 50 μg/ml phosphatidylserine, 10 μg/ml PKC and 1 μM of ATP, thereby initiating the reaction. Substantially the same reaction as mentioned above was repeated three more times, except that the ATP concentration was changed to 3, 5 and 10 μM. 3 Minutes after the initiation of each of the reactions, 100 μl of an aqueous 20% phosphoric acid solution was added to each well of the individual plates to terminate the reaction. Each well was washed with TrPBS three times. 100 μl of the primary antibody included in the kit, which had been diluted 10-fold with TwPBS, was added to each of the washed wells, and allowed to stand at room temperature for 1 hour. Each well was washed with TrPBS three times. Then, as a secondary antibody, 100 μl of peroxydase-labeled anti-mouse IgG antibody (manufactured and sold by Bio-Rad laboratories, U.S.A.) which had been diluted 1000-fold with TwPBS was added to each well, and allowed to stand at room temperature for 1 hour. Each well was washed with TrPBS three times. To each well was added 100 μl of a coloring agent containing 2 mg/ml orthophenylenediamine and an aqueous 0.04% hydrogen peroxide solution. When the coloring proceeded satisfactorily, 30 μl of 4.5M sulfuric acid was added to each well to terminate the reaction. The absorbance of the reaction mixture in each well was determined using a microplate reader (manufactured and sold by Bio-Rad laboratories, u.s.a.). In order to measure the PKC inhibiting activity of each of compounds 1 to 10 and the comparative compound, each of the compounds having an appropriate concentration was individually added to the above-mentioned respective solutions having ATP concentrations of 1, 3, 5 and 10 μM and, then, the PKC activity was individually measured in terms of the absorbance in substantially the same manner as mentioned above. The PKC inhibiting activity in terms of inhibition constant (Ki) was individually obtained by double reciprocal plotting of the respective PKC activities obtained in the presence of each of compounds 1 to 10 and the comparative compound, and the respective PKC activities obtained in the absence of compounds 1 to 10 and the comparative compound.

[1] = target: T1, Myosin light chain kinase (MLCK) (Gallus gallus, UniProt P11799); assay: Measurement of the activity to inhibit Myosin light chain kinase (MLCK); type: biochemical; conditions: for Ki: ATP 20, 30, 50 and 100 μM, double reciprocal plotting, substrate MLC from chicken gizzard, read-out: MLCK inhibiting activity in terms of Ki value
T1 construct: MLCK was isolated and purified by the method according to Walsh et al; from tissue
Method: Each of compounds 1 to 10 was used as an inhibitor for MLCK. As a comparative compound, 1- 2-(6-benzothiazolesulfonylamino)ethyl!-4- 3-(phenoxy)propyl!piperazine dihydrochloride disclosed in International Patent Application Publication No. WO92/14712 was used. Measurement of an MLCK inhibiting activity of each of compounds 1 to 10 was conducted utilizing the reaction system of MLCK and an antibody specific for phosphorylated myosine light chain (MLCP). MLC was isolated from a chicken gizzard and purified by the method according to Perry et al. (Journal of Biochemistry, vol. 211, p.267-272, 1983), to thereby obtain 20 kDa of purified MLC. On the other hand, MLCK was isolated and purified by the method according to Walsh et al. (Methods in Enzymology, vol. 99, p.279-288, 1983). Calmodulin was isolated from a pig brain and purified by the method according to Yazawa (Journal of Biochemistry, vol. 87, p.1313-1320, 1980). Further, anti-MLCP antibody was prepared by using, as an antigen, a synthetic peptide which has an amino acid sequence of an MLCP amino acid fragment of 12 amino acid residues containing a serine residue (phosphorylation site of MLCP). […] The synthetic peptide was subjected to phosphorylation by MLCK in the presence of ATP, followed by purification by high performance liquid chromatography. The purified peptide was conjugated with key hole limpet hemocyanin (KLH). The conjugation efficiency thereof was 110-148 nmol peptide/mg KLH. 0.2 mg of the KLH-conjugated peptide was mixed with an adjuvant and injected to a rabbit. The injection was conducted four more times, to thereby immunize the […]. An anti-MLCP antibody was obtained from the […], and the antibody titer thereof was examined. With respect to the anti-MLCP antibody having a satisfactorily high antibody titer, an IgG fraction (anti-MLCP IgG) was obtained and purified. Measurement of the MLCK activity was conducted as follows. MLC was diluted with a phosphate buffer (PBS) to obtain a solution having a MLC concentration of 5 μg/ml. 100 μl of the solution was added to each well of 96-well immunoplate, and was allowed to stand overnight at 4° C., to thereby immobilize the MLC on the surface of each well. Each plate was washed with PBS to thereby remove the MLC which had not been immobilized. To each of the MLC-immobilized wells was added a solution containing 25 mM Tris buffer (pH 7.5), 3 mM magnesium chloride, 1 mM calcium chloride, 0.1% of 2-mercaptoethanol, 1 mg/ml bovine serum albumin, 20 μg/ml calmoduline, 0.1 μg/ml MLCK, and 20 μM of ATP, thereby initiating the reaction. Substantially the same reaction as mentioned above was repeated three more times, except that the ATP concentration was changed to 30, 50 and 100 μM. 3 Minutes after the initiation of each of the reactions, 100 μl of an aqueous 20% phosphoric acid solution was added to each well of the individual plates to terminate the reaction. Each well was washed three times with PBS containing 0.2% of Triton X-100 (TrPBS). As a primary antibody, 100 μl of anti-MLCP antibody which had been diluted 500-fold with PBS containing 0.05% Tween 20 (TwPBS) was added to each of the washed wells, and allowed to stand at room temperature for 1 hour. Each well was washed with TrPBS three times. Then, as a secondary antibody, 100 μl of peroxydase-labeled anti-rabit IgG antibody (manufactured and sold by Cappel Co., Ltd., Germany) which had been diluted 1000-fold with TwPBS was added to each well, and allowed to stand at room temperature for 1 hour. Each well was washed with TrPBS three times. To each well was added 100 μ l of a coloring agent containing 2 mg/ml orthophenylenediamine and an aqueous 0.04% hydrogen peroxide solution. When the coloring proceeded satisfactorily, 30 μl of 4.5M sulfuric acid was added to each well to terminate the reaction. The absorbance of the reaction mixture in each well was determined using a microplate reader (manufactured and sold by Bio-Rad laboratories, U.S.A.). […]

[2] = system: tracheal specimens excised from guinea pigs (bronchial smooth muscle); assay: Inhibitory effect on KCl-induced contraction of tracheal specimens excised from guinea pigs; design: species or system guinea pig; conditions: for Emax: Cavia porcellus, 20 mM KCl-induced contraction, maximum relaxation with 100 μM papaverine = 100%, 37 °C, 3 specimens, cumulative addition, read-out: Bronchial smooth muscle-relaxation ratio
From the text: According to a method in which tracheal specimens excised from guinea pigs were used (Takagi and Ozawa, "Yakubutsugaku Jikken (Experiments in Pharmacology)", p.100-102, 1960, published by Nanzando, Japan; and Fujiwara and Shibata, "Yakurigaku Kiso Jikenho (Methods of Fundamental Experiments in Pharmacology)" p.131-134, 1982, published by Kyourin, Japan), the relaxing effect of benzothiazolesulfonamide derivatives of the present invention (compounds 1 to 10) on bronchial smooth muscle was evaluated. From male guinea pigs weighing 350 to 500 g (Hartley strain, Kuroda Junkei Dobutsu), tracheas were excised and each of the excised tracheal specimens was hung in a 20 ml Magnus tube filled with Krebs-Henseleit solution containing 3 μM indomethacin under isometric conditions (initial load: 1.5 g). The solution temperature was kept at 37 ° C. in an atmosphere containing 95% O2 and 5% CO2. […] On the other hand, each of the compounds of the present invention was dissolved in distilled water or physiological saline and, after the KCl-induced contraction became stable, the compound solution was cumulatively added into the Magnus tube. The relaxing effect of each of the compounds of the present invention on contracted tracheal specimens was evaluated and a dose-response curve was obtained. After the evaluation of the relaxing effect, 100 μM of papaverine was individually added into the Magnus tubes, to thereby obtain a maximum relaxation value. Taking the obtained maximum relaxation value as 100%, the relaxation ratio was calculated with respect to each of thee compounds of the present invention. The number of specimens tested for each compound was 3. As a comparative compound, 1- 2-(6-benzothiazolesulfonylamino)ethyl!-4- 3-(phenoxy)propyl!piperazine […] disclosed in International Patent Application Publication No. WO92/14712 was used. (2) Results of the calculations

bronchial smooth muscle = conditions: disclosed in WO92/14712; cited from earlier work

T1 sequence (P11799 935-1906): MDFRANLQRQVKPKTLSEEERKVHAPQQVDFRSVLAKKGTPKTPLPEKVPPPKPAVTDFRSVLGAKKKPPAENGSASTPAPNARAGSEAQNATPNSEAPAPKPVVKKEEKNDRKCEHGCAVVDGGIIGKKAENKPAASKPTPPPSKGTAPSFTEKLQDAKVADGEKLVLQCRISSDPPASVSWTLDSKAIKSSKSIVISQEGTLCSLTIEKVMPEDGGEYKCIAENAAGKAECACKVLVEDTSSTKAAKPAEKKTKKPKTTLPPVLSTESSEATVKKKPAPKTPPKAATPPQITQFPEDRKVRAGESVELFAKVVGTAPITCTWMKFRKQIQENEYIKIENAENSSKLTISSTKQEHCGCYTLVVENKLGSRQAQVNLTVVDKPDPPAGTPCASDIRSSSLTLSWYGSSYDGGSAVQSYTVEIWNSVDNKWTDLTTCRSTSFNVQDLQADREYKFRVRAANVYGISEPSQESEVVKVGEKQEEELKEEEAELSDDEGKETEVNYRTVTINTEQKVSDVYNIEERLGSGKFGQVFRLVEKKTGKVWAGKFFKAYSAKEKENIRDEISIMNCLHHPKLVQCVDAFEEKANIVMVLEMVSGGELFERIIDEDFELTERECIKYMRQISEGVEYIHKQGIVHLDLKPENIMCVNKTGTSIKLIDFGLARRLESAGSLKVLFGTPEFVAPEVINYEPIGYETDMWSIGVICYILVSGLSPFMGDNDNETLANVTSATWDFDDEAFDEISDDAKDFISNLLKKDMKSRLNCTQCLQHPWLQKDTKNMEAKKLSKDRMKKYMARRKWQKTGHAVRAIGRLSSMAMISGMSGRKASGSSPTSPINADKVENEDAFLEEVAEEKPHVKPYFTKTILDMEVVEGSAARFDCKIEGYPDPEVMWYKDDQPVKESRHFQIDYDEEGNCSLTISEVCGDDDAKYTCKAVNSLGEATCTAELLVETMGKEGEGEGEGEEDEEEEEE

Structure (SMILES)	Ki (protein kinase C (PKC))	Ki [1]	Emax [2]	activity to inhibit protein kinase C (in words) (protein kinase C (PKC); conclusion from Table 1)	activity to inhibit myosin light chain kinase (in words) ([1]; conclusion from Table 1)	ability to relax a bronchial smooth muscle of a tracheal specimen (in words) ([2]; KCl-induced contraction, conclusion from Table 2)	ability to relax a bronchial smooth muscle by its antihistaminic activity (bronchial smooth muscle)
O=S(=O)(c1ccc2ncsc2c1)N1CCNCC1 [Compound 6, 1-(6-benzothiazolesulfonyl)piperazine hydrochloride]	15 µM	25 µM	27.2%				
O=S(=O)(NCCNCc1cccc(Cl)c1)c1cccc2ncsc12 [Compound 8, N-2-(3-chlorobenzylamino)ethyl!-7-benzothiazolesulfonamide hydrochloride]	5 µM	55 µM	85.7%				
O=S(=O)(NCCNCc1cccc(F)c1)c1cccc2ncsc12 [Compound 10, N-2-(3-fluorobenzylamino)ethyl!-7-benzothiazolesulfonamide hydrochloride]	7 µM	55 µM	78%				
CC1CNCCN1S(=O)(=O)c1cccc2ncsc12 (stereo not shown) [Compound 3, 1-(7-benzothiazolesulfonyl)-2-methylpiperazine hydrochloride]	15 µM	90 µM	21.1%				
CC(NCCNS(=O)(=O)c1cccc2ncsc12)c1cccc(Cl)c1 (stereo not shown) [Compound 9, N-{2-1-(3-chlorophenyl)ethyl!aminoethyl}-7-benzothiazolesulfonamide hydrochloride]	25 µM	90 µM	74.6%				
O=S(=O)(NCCN1CCN(CCCOc2ccccc2)CC1)c1ccc2ncsc2c1 [1-2-(6-benzothiazolesulfonylamino)ethyl!-4-3-(phenoxy)propyl!piperazine]							has the ability to relax a bronchial smooth muscle by its antihistaminic activity
O=S(=O)(c1cccc2ncsc12)N1CCNCC1 [Compound 2, 1-(7-benzothiazolesulfonyl)piperazine hydrochloride]	5 µM	50 µM	24%				

More lines, main results first:

Ki (protein kinase C (PKC))	Ki [1]	Structure (SMILES)	Emax [2]	activity to inhibit protein kinase C (in words) (protein kinase C (PKC); conclusion from Table 1)	activity to inhibit myosin light chain kinase (in words) ([1]; conclusion from Table 1)	ability to relax a bronchial smooth muscle of a tracheal specimen (in words) ([2]; KCl-induced contraction, conclusion from Table 2)	ability to relax a bronchial smooth muscle by its antihistaminic activity (bronchial smooth muscle)
6 µM	50 µM	O=S(=O)(NCCNCc1ccc2c(c1)OCO2)c1cccc2ncsc12 [Compound 7, N-2-(3,4-methylenedioxybenzylamino)ethyl!-7-benzothiazolesulfonamide hydrochloride]	96.8%				
7 µM	80 µM	O=S(=O)(c1cccc2ncsc12)N1CCCNCC1 [Compound 1, 1-(7-benzothiazolesulfonyl)homopiperazine hydrochloride]	30.5%				
> 200 µM	> 200 µM	O=S(=O)(NCCN1CCN(CCCOc2ccccc2)CC1)c1ccc2ncsc2c1 [Comparative compound, 1-2-(6-benzothiazolesulfonylamino)ethyl!-4-3-(phenoxy)propyl!piperazine dihydrochloride, reference compound]	6.8%	no activity to inhibit the protein kinases	no activity to inhibit the protein kinases	no ability to relax such a bronchial smooth muscle	
5 µM	75 µM	NCCNS(=O)(=O)c1cccc2ncsc12 [Compound 4, 1-(7-benzothiazolesulfonyl)ethylenediamine hydrochloride]	33%				
35 µM	120 µM	CNCCNS(=O)(=O)c1cccc2ncsc12 [Compound 5, 1-(7-benzothiazolesulfonyl)-4-methylethylenediamine hydrochloride]	22%				
